Columns and labels:
[1] = target: Kelch domain of human KEAP1 (321-624 aa) (Homo sapiens (Human), UniProt Q14145); experiment: KEAP1 KELCH ThermoFluor binding assay; details: KEAP Kelch […], 1,8-ANS, pH 7.0, average of results obtained, read-out: Tf Kd;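 further: Ligand-induced melting temperature shift of E. coli-expressed KEAP1 Kelch protein, Kd estimated from concentration-response curves of ΔTm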
Excerpt: The shift in the melting point described as a ΔTm is proportional to the concentration and affinity of the ligand. The compound potency may be compared as a rank order of either ΔTm values at a single compound concentration or in terms of KD values, estimated from concentration response curves.
The protein was expressed in E. coli with 6His tag that was cleaved prior to receipt for use.
Protein (KEAP Kelch) and compound solutions were dispensed into black 384-well polypropylene PCR microplates (Abgene) and overlayed with silicone oil (1 μL, Fluka, type DC 200) to prevent evaporation.

[2] = system: Glo-Response ARE-luc2P HEK293 cell line; experiment: ARE luciferase reporter cell-based assay; details: Homo sapiens, HEK293, 24 h, average of results obtained;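 further: luciferase signal tracks Nrf2 activation of the ARE once compounds disrupt KEAP1-Nrf2 binding, read with One-Glo reagent, DMSO serving as low control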

Sequence of Kelch domain of human KEAP1 (321-624 aa) (Q14145 321-624): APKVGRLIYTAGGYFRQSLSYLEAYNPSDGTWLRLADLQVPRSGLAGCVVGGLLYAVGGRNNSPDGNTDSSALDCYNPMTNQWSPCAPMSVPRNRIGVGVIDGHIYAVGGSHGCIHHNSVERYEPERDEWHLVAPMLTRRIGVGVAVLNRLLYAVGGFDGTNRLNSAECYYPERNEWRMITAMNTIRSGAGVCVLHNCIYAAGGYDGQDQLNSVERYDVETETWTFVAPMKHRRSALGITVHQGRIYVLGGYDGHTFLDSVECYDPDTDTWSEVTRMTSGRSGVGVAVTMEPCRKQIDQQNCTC

Row | SMILES | Kd [1] [nM] | EC50 [2] [nM]
1 | Cc1ccc([C@@H](CC(=O)O)c2ccn3c(C(F)F)nnc3c2C)cc1CN1C[C@@H]2CCCCN2c2ncccc2S1(=O)=O (single isomer, unassigned) [Example 448, (*R)-3-(3-(Difluoromethyl)-8-methyl-[1,2,4]triazolo[4,3-a]pyridin-7-yl)-3-(3-(((*S)-5,5-dioxido-7,7a,8,9,10,11-hexahydro-6H-dipyrido[2,1-d:2′,3′-f][1,2,5]thiadiazepin-6-yl)methyl)-4-methylphenyl)propanoic Acid] | < 1 | 218
2 | Cc1ccc([C@H](CC(=O)O)c2ccn3c(C(F)F)nnc3c2C)cc1CN1C[C@H]2CCCN2c2ncccc2S1(=O)=O (single isomer, unassigned) [Example 450, (*S)-3-(3-(Difluoromethyl)-8-methyl-[1,2,4]triazolo[4,3-a]pyridin-7-yl)-3-(3-(((R)-5,5-dioxido-7a,8,9,10-tetrahydropyrido[2,3-f]pyrrolo[2,1-d][1,2,5]thiadiazepin-6(7H)-yl)methyl)-4-methylphenyl)propanoic Acid] | < 1 | 25.1
3 | Cc1ccc([C@@H](CC(=O)O)c2ccn3c(C(F)F)nnc3c2C)cc1CN1C[C@H]2CCCN2c2ncccc2S1(=O)=O (single isomer, unassigned) [Example 451, (*R)-3-(3-(Difluoromethyl)-8-methyl-[1,2,4]triazolo[4,3-a]pyridin-7-yl)-3-(3-(((R)-5,5-dioxido-7a,8,9,10-tetrahydropyrido[2,3-f]pyrrolo[2,1-d][1,2,5]thiadiazepin-6(7H)-yl)methyl)-4-methylphenyl)propanoic Acid] | < 1 | 265
4 | Cc1ccc([C@H](CC(=O)O)c2ccn3c(C(F)F)nnc3c2C)cc1CN1C[C@@H]2COCCN2c2ncccc2S1(=O)=O (single isomer, unassigned) [Example 458, (*S)-3-(3-(Difluoromethyl)-8-methyl-[1,2,4]triazolo[4,3-a]pyridin-7-yl)-3-(3-(((*R)-5,5-dioxido-7a,8,10,11-tetrahydro-[1,4]oxazino[3,4-d]pyrido[2,3-f][1,2,5]thiadiazepin-6(7H)-yl)methyl)-4-methylphenyl)propanoic Acid] | < 1 | 276
5 | Cc1ccc([C@@H](CC(=O)O)c2ccn3c(C(F)F)nnc3c2C)cc1CN1C[C@H]2COCCN2c2ncccc2S1(=O)=O (single isomer, unassigned) [Example 462, (*R)-3-(3-(Difluoromethyl)-8-methyl-[1,2,4]triazolo[4,3-a]pyridin-7-yl)-3-(3-(((*S)-5,5-dioxido-7a,8,10,11-tetrahydro-[1,4]oxazino[3,4-d]pyrido[2,3-f][1,2,5]thiadiazepin-6(7H)-yl)methyl)-4-methylphenyl)propanoic Acid] | 13.7 | 2930
6 | CC[C@@H]1CN(Cc2cc([C@@H](CC(=O)O)c3ccn4c(C(F)F)nnc4c3C)ccc2C)S(=O)(=O)c2cccnc2O1 (single isomer, unassigned) [Example 465, (*R)-3-(3-(Difluoromethyl)-8-methyl-[1,2,4]triazolo[4,3-a]pyridin-7-yl)-3-(3-(((R)-4-ethyl-1,1-dioxido-3,4-dihydro-2H-pyrido[2,3-b][1,4,5]oxathiazepin-2-yl)methyl)-4-methylphenyl)propanoic Acid] | < 1 | 154
7 | Cc1ccc([C@@H](CC(=O)O)c2ccn3c(C(F)F)nnc3c2C)cc1CN1CC2(COC2)Oc2ncccc2S1(=O)=O (single isomer, unassigned) [Example 471, (*R)-3-(3-(Difluoromethyl)-8-methyl-[1,2,4]triazolo[4,3-a]pyridin-7-yl)-3-(3-((1′,1′-dioxidospiro[oxetane-3,4′-pyrido[2,3-b][1,4,5]oxathiazepin]-2′(3′H)-yl)methyl)-4-methylphenyl)propanoic Acid] | < 1 | 2630
8 | Cc1ccc([C@@H](CC(=O)O)c2ccn3c(C(F)F)nnc3c2C)cc1CN1C[C@]2(C)CCCN2c2ncccc2S1(=O)=O (single isomer, unassigned) [Example 477, (*R)-3-(3-(Difluoromethyl)-8-methyl-[1,2,4]triazolo[4,3-a]pyridin-7-yl)-3-(4-methyl-3-(((*S)-7a-methyl-5,5-dioxido-7a,8,9,10-tetrahydropyrido[2,3-f]pyrrolo[2,1-d][1,2,5]thiadiazepin-6(7H)-yl)methyl)phenyl)propanoic Acid] | 2.61 | 1680

Continued, in another order:

Row | Kd [1] [nM] | SMILES | EC50 [2] [nM]
9 | < 1 | Cc1ccc([C@H](CC(=O)O)c2ccn3c(C(F)(F)F)nnc3c2C)cc1CN1C[C@@H]2CCC(F)(F)CN2c2ncccc2S1(=O)=O (single isomer, unassigned) [Example 453, (*S)-3-(3-(((*S)-10,10-Difluoro-5,5-dioxido-7,7a,8,9,10,11-hexahydro-6H-dipyrido[2,1-d:2′,3′-f][1,2,5]thiadiazepin-6-yl)methyl)-4-methylphenyl)-3-(8-methyl-3-(trifluoromethyl)-[1,2,4]triazolo[4,3-a]pyridin-7-yl)propanoic Acid] | 162
10 | < 1 | Cc1ccc([C@@H](CC(=O)O)c2ccn3c(C(F)(F)F)nnc3c2C)cc1CN1C[C@@H]2CCC(F)(F)CN2c2ncccc2S1(=O)=O (single isomer, unassigned) [Example 455, (*R)-3-(3-(((*S)-10,10-Difluoro-5,5-dioxido-7,7a,8,9,10,11-hexahydro-6H-dipyrido[2,1-d:2′,3′-f][1,2,5]thiadiazepin-6-yl)methyl)-4-methylphenyl)-3-(8-methyl-3-(trifluoromethyl)-[1,2,4]triazolo[4,3-a]pyridin-7-yl)propanoic Acid] | 798
11 | < 1 | Cc1ccc([C@@H](CC(=O)O)c2ccn3c(C(F)(F)F)nnc3c2C)cc1CN1C[C@H]2CCC(F)(F)CN2c2ncccc2S1(=O)=O (single isomer, unassigned) [Example 456, (*R)-3-(3-(((*R)-10,10-Difluoro-5,5-dioxido-7,7a,8,9,10,11-hexahydro-6H-dipyrido[2,1-d:2′,3′-f][1,2,5]thiadiazepin-6-yl)methyl)-4-methylphenyl)-3-(8-methyl-3-(trifluoromethyl)-[1,2,4]triazolo[4,3-a]pyridin-7-yl)propanoic Acid] | 414
12 | 1.19 | Cc1ccc([C@@H](CC(=O)O)c2ccn3c(C(F)F)nnc3c2C)cc1CN1C[C@@H]2COCCN2c2ncccc2S1(=O)=O (single isomer, unassigned) [Example 459, (*R)-3-(3-(Difluoromethyl)-8-methyl-[1,2,4]triazolo[4,3-a]pyridin-7-yl)-3-(3-(((*R)-5,5-dioxido-7a,8,10,11-tetrahydro-[1,4]oxazino[3,4-d]pyrido[2,3-f][1,2,5]thiadiazepin-6(7H)-yl)methyl)-4-methylphenyl)propanoic Acid] | 203
13 | 1.19 | Cc1ccc([C@H](CC(=O)O)c2ccn3c(C(F)F)nnc3c2C)cc1CN1C[C@H]2COCCN2c2ncccc2S1(=O)=O (single isomer, unassigned) [Example 461, (*S)-3-(3-(Difluoromethyl)-8-methyl-[1,2,4]triazolo[4,3-a]pyridin-7-yl)-3-(3-(((*S)-5,5-dioxido-7a,8,10,11-tetrahydro-[1,4]oxazino[3,4-d]pyrido[2,3-f][1,2,5]thiadiazepin-6(7H)-yl)methyl)-4-methylphenyl)propanoic Acid] | 68.7
14 | < 1 | Cc1ccc([C@H](CC(=O)O)c2ccn3c(C(F)F)nnc3c2C)cc1CN1CC2(COC2)Oc2ccccc2S1(=O)=O (single isomer, unassigned) [Example 467, (*S)-3-(3-(Difluoromethyl)-8-methyl-[1,2,4]triazolo[4,3-a]pyridin-7-yl)-3-(3-((1,1-dioxidospiro[benzo[b][1,4,5]oxathiazepine-4,3′-oxetan]-2(3H)-yl)methyl)-4-methylphenyl)propanoic Acid] | 79.3
15 | < 1 | Cc1ccc([C@H](CC(=O)O)c2ccn3c(C(F)F)nnc3c2C)cc1CN1CC2(COC2)Oc2ncccc2S1(=O)=O (single isomer, unassigned) [Example 470, (*S)-3-(3-(Difluoromethyl)-8-methyl-[1,2,4]triazolo[4,3-a]pyridin-7-yl)-3-(3-((1′,1′-dioxidospiro[oxetane-3,4′-pyrido[2,3-b][1,4,5]oxathiazepin]-2′(3′H)-yl)methyl)-4-methylphenyl)propanoic Acid] | 472
16 | < 1 | Cc1ccc([C@H](CC(=O)O)c2ccn3c(C(F)F)nnc3c2C)cc1CN1CC2(CC2)Oc2ncccc2S1(=O)=O (single isomer, unassigned) [Example 473, (*S)-3-(3-(Difluoromethyl)-8-methyl-[1,2,4]triazolo[4,3-a]pyridin-7-yl)-3-(3-((1′,1′-dioxidospiro[cyclopropane-1,4′-pyrido[2,3-b][1,4,5]oxathiazepin]-2′(3′H)-yl)methyl)-4-methylphenyl)propanoic Acid] | 104
17 | < 1 | Cc1ccc([C@@H](CC(=O)O)c2ccn3c(C(F)F)nnc3c2C)cc1CN1CC2(CC2)Oc2ncccc2S1(=O)=O (single isomer, unassigned) [Example 474, (*R)-3-(3-(Difluoromethyl)-8-methyl-[1,2,4]triazolo[4,3-a]pyridin-7-yl)-3-(3-((1′,1′-dioxidospiro[cyclopropane-1,4′-pyrido[2,3-b][1,4,5]oxathiazepin]-2′(3′H)-yl)methyl)-4-methylphenyl)propanoic Acid] | 1580
18 | < 1 | Cc1ccc([C@H](CC(=O)O)c2ccn3c(C(F)F)nnc3c2C)cc1CN1C[C@]2(C)CCCN2c2ncccc2S1(=O)=O (single isomer, unassigned) [Example 476, (*S)-3-(3-(Difluoromethyl)-8-methyl-[1,2,4]triazolo[4,3-a]pyridin-7-yl)-3-(4-methyl-3-(((*S)-7a-methyl-5,5-dioxido-7a,8,9,10-tetrahydropyrido[2,3-f]pyrrolo[2,1-d][1,2,5]thiadiazepin-6(7H)-yl)methyl)phenyl)propanoic Acid] | 219

Reference: patent US10947252B2, “Inhibitors of KEAP1-Nrf2 protein-protein interaction” (Janssen Pharmaceutica NV, priority 2018, dated 2021)
